Data published in the NIST ThermoML archive (doi:10.1021/acs.jced.7b00347).
Numbers after ± are expanded uncertainties.

Assay: mn = molality of the nth substance listed, in mol/kg
Settings: for surface tension liquid-gas: Ring tensiometer; for electrical conductivity: 100 kPa, Liquid, Alternating current cell with electrodes

CCCCCCCC[NH+](CCO)CC(C)O.[Cl-] (centres undefined) + O
surface tension liquid-gas (293.15 K, m1 = 1.867e-05): 62.99 ± 0.81 mN/m | surface tension liquid-gas (293.15 K, m1 = 3.733e-05): 56.87 ± 0.74 mN/m | surface tension liquid-gas (293.15 K, m1 = 9.334e-05): 47.51 ± 0.63 mN/m | surface tension liquid-gas (293.15 K, m1 = 0.0001867): 40.52 ± 0.55 mN/m | surface tension liquid-gas (293.15 K, m1 = 0.00028): 36.28 ± 0.5 mN/m | surface tension liquid-gas (293.15 K, m1 = 0.0003734): 33.31 ± 0.47 mN/m | surface tension liquid-gas (293.15 K, m1 = 0.0004436): 31.33 ± 0.45 mN/m | surface tension liquid-gas (293.15 K, m1 = 0.0009334): 30.74 ± 0.45 mN/m | surface tension liquid-gas (293.15 K, m1 = 0.001867): 30.15 ± 0.44 mN/m | surface tension liquid-gas (293.15 K, m1 = 0.0028): 29.89 ± 0.44 mN/m | surface tension liquid-gas (293.15 K, m1 = 0.003733): 30 ± 0.44 mN/m | electrical conductivity (293.15 K, m1 = 1.87e-05): 0.00057 ± 3.2e-05 S/m | electrical conductivity (293.15 K, m1 = 3.99e-05): 0.000652 ± 3.6e-05 S/m | electrical conductivity (293.15 K, m1 = 6.12e-05): 0.000733 ± 4e-05 S/m | electrical conductivity (293.15 K, m1 = 8.25e-05): 0.000815 ± 4.5e-05 S/m | electrical conductivity (293.15 K, m1 = 0.0001038): 0.000896 ± 5e-05 S/m | electrical conductivity (293.15 K, m1 = 0.0001251): 0.000978 ± 5.5e-05 S/m | electrical conductivity (293.15 K, m1 = 0.0001464): 0.00106 ± 6e-05 S/m | electrical conductivity (293.15 K, m1 = 0.0001676): 0.00114 ± 6.5e-05 S/m | electrical conductivity (293.15 K, m1 = 0.0001889): 0.00122 ± 7e-05 S/m | electrical conductivity (293.15 K, m1 = 0.0002102): 0.0013 ± 7.6e-05 S/m | electrical conductivity (293.15 K, m1 = 0.0002315): 0.00138 ± 8.1e-05 S/m | electrical conductivity (293.15 K, m1 = 0.0002528): 0.00147 ± 8.6e-05 S/m | electrical conductivity (293.15 K, m1 = 0.000274): 0.00155 ± 9.2e-05 S/m | electrical conductivity (293.15 K, m1 = 0.0002953): 0.00163 ± 9.7e-05 S/m | electrical conductivity (293.15 K, m1 = 0.0003166): 0.00171 ± 0.0001 S/m | electrical conductivity (293.15 K, m1 = 0.0003379): 0.00179 ± 0.00011 S/m | electrical conductivity (293.15 K, m1 = 0.0003592): 0.00187 ± 0.00011 S/m | electrical conductivity (293.15 K, m1 = 0.0003805): 0.00196 ± 0.00012 S/m | electrical conductivity (293.15 K, m1 = 0.0004017): 0.00204 ± 0.00012 S/m | electrical conductivity (293.15 K, m1 = 0.000423): 0.00212 ± 0.00013 S/m | electrical conductivity (293.15 K, m1 = 0.0004443): 0.0022 ± 0.00014 S/m | electrical conductivity (293.15 K, m1 = 0.0004687): 0.00226 ± 0.00014 S/m | electrical conductivity (293.15 K, m1 = 0.0004932): 0.00233 ± 0.00014 S/m | electrical conductivity (293.15 K, m1 = 0.0005177): 0.00239 ± 0.00015 S/m | electrical conductivity (293.15 K, m1 = 0.0005421): 0.00246 ± 0.00015 S/m | electrical conductivity (293.15 K, m1 = 0.0005666): 0.00252 ± 0.00015 S/m | electrical conductivity (293.15 K, m1 = 0.000591): 0.00259 ± 0.00015 S/m | electrical conductivity (293.15 K, m1 = 0.0006155): 0.00266 ± 0.00016 S/m | electrical conductivity (293.15 K, m1 = 0.0006399): 0.00272 ± 0.00016 S/m | electrical conductivity (293.15 K, m1 = 0.0006644): 0.00279 ± 0.00016 S/m | electrical conductivity (293.15 K, m1 = 0.0006888): 0.00285 ± 0.00017 S/m | electrical conductivity (293.15 K, m1 = 0.0007133): 0.00292 ± 0.00017 S/m | electrical conductivity (293.15 K, m1 = 0.0007378): 0.00298 ± 0.00017 S/m | electrical conductivity (293.15 K, m1 = 0.0007622): 0.00305 ± 0.00017 S/m | electrical conductivity (293.15 K, m1 = 0.0007867): 0.00312 ± 0.00018 S/m | electrical conductivity (293.15 K, m1 = 0.0008111): 0.00318 ± 0.00018 S/m | electrical conductivity (293.15 K, m1 = 0.0008356): 0.00325 ± 0.00018 S/m | electrical conductivity (293.15 K, m1 = 0.00086): 0.00331 ± 0.00019 S/m | electrical conductivity (293.15 K, m1 = 0.0008845): 0.00338 ± 0.00019 S/m | electrical conductivity (293.15 K, m1 = 0.0009089): 0.00345 ± 0.00019 S/m | electrical conductivity (293.15 K, m1 = 0.0009334): 0.00352 ± 0.0002 S/m | surface tension liquid-gas (298.15 K, m1 = 1.867e-05): 58.01 ± 0.75 mN/m | surface tension liquid-gas (298.15 K, m1 = 3.733e-05): 52.03 ± 0.68 mN/m | surface tension liquid-gas (298.15 K, m1 = 9.334e-05): 43.52 ± 0.59 mN/m | surface tension liquid-gas (298.15 K, m1 = 0.0001867): 36.81 ± 0.51 mN/m | surface tension liquid-gas (298.15 K, m1 = 0.00028): 33.44 ± 0.47 mN/m | surface tension liquid-gas (298.15 K, m1 = 0.0004088): 30.57 ± 0.44 mN/m | surface tension liquid-gas (298.15 K, m1 = 0.0009334): 29.9 ± 0.44 mN/m | surface tension liquid-gas (298.15 K, m1 = 0.001867): 29.43 ± 0.43 mN/m | surface tension liquid-gas (298.15 K, m1 = 0.0028): 29 ± 0.43 mN/m | surface tension liquid-gas (298.15 K, m1 = 0.003733): 28.91 ± 0.43 mN/m | electrical conductivity (298.15 K, m1 = 1.87e-05): 0.00071 ± 4e-05 S/m | electrical conductivity (298.15 K, m1 = 3.79e-05): 0.000793 ± 4.4e-05 S/m | electrical conductivity (298.15 K, m1 = 5.71e-05): 0.000877 ± 4.9e-05 S/m | electrical conductivity (298.15 K, m1 = 7.64e-05): 0.00096 ± 5.5e-05 S/m | electrical conductivity (298.15 K, m1 = 9.56e-05): 0.00104 ± 5.9e-05 S/m | electrical conductivity (298.15 K, m1 = 0.0001148): 0.00113 ± 6.6e-05 S/m | electrical conductivity (298.15 K, m1 = 0.000134): 0.00121 ± 6.7e-05 S/m | electrical conductivity (298.15 K, m1 = 0.0001533): 0.00129 ± 7.2e-05 S/m | electrical conductivity (298.15 K, m1 = 0.0001725): 0.00138 ± 9.7e-05 S/m | electrical conductivity (298.15 K, m1 = 0.0001917): 0.00146 ± 0.00039 S/m | electrical conductivity (298.15 K, m1 = 0.0002109): 0.00154 ± 9.4e-05 S/m | electrical conductivity (298.15 K, m1 = 0.0002302): 0.00163 ± 0.00045 S/m | electrical conductivity (298.15 K, m1 = 0.0002494): 0.00171 ± 9.7e-05 S/m | electrical conductivity (298.15 K, m1 = 0.0002686): 0.00179 ± 0.0001 S/m | electrical conductivity (298.15 K, m1 = 0.0002879): 0.00188 ± 0.00011 S/m | electrical conductivity (298.15 K, m1 = 0.0003071): 0.00196 ± 0.00012 S/m | electrical conductivity (298.15 K, m1 = 0.0003263): 0.00204 ± 0.00068 S/m | electrical conductivity (298.15 K, m1 = 0.0003455): 0.00213 ± 0.00014 S/m | electrical conductivity (298.15 K, m1 = 0.0003648): 0.00221 ± 0.00012 S/m | electrical conductivity (298.15 K, m1 = 0.000384): 0.0023 ± 0.00018 S/m | electrical conductivity (298.15 K, m1 = 0.0004032): 0.00238 ± 0.00081 S/m | electrical conductivity (298.15 K, m1 = 0.0004364): 0.00249 ± 0.00014 S/m | electrical conductivity (298.15 K, m1 = 0.0004695): 0.0026 ± 0.00021 S/m | electrical conductivity (298.15 K, m1 = 0.0005026): 0.00271 ± 0.0003 S/m | electrical conductivity (298.15 K, m1 = 0.0005358): 0.00282 ± 0.00015 S/m | electrical conductivity (298.15 K, m1 = 0.0005689): 0.00294 ± 0.00016 S/m | electrical conductivity (298.15 K, m1 = 0.000602): 0.00305 ± 0.00017 S/m | electrical conductivity (298.15 K, m1 = 0.0006352): 0.00316 ± 0.00017 S/m | electrical conductivity (298.15 K, m1 = 0.0006683): 0.00327 ± 0.00018 S/m | electrical conductivity (298.15 K, m1 = 0.0007014): 0.00338 ± 0.00019 S/m | electrical conductivity (298.15 K, m1 = 0.0007346): 0.00349 ± 0.00019 S/m | electrical conductivity (298.15 K, m1 = 0.0007677): 0.00361 ± 0.0002 S/m | electrical conductivity (298.15 K, m1 = 0.0008009): 0.00372 ± 0.0002 S/m | electrical conductivity (298.15 K, m1 = 0.000834): 0.00383 ± 0.00021 S/m | electrical conductivity (298.15 K, m1 = 0.0008671): 0.00394 ± 0.00022 S/m | electrical conductivity (298.15 K, m1 = 0.0009003): 0.00405 ± 0.00022 S/m | electrical conductivity (298.15 K, m1 = 0.0009334): 0.00417 ± 0.00023 S/m
